The structures appear in SMILES notation. Converted amounts (≈) assume the structure as drawn.

A word on the IC50: it is the midpoint of a concentration-inhibition curve. Read a low IC50 as greater potency in that assay. The term clearance denotes the volume of plasma or blood freed of the substance per unit of time. A high value points to a high capacity for elimination. Usually logD stands for lipophilicity at a set pH, counting ionised and neutral species. Read a high logD as higher lipophilicity. Broadly, the solubility is how much of the substance goes into solution per volume. Read a low solubility as little dissolved substance.

For data set [1], the target named is Epidermal growth factor receptor (Homo sapiens, UniProt P00533). In words: Inhibitory concentration against Epidermal growth factor receptor tyrosine kinase activity.
The species entered for data set [2] is Homo sapiens. Kind of data set: Concentration required to inhibit TNF-alpha production was determined in human whole blood. The class given is functional.
The target of data set [3] is Mitogen-activated protein kinase 14 (Homo sapiens, UniProt Q16539).
Description: Inhibitory concentration against alpha mitogen activated protein kinase p38 activity
Data set [4] can be described thus: Clearance after i.v. dosing at 1 mg/kg. The class given is ADME, organism-based. Also noted: dose 1 mg/kg, route intravenous. As to conditions: rat, in vivo, iv.
A short description of data set [5]: Volume of distribution at steady state after oral dosing at 1 mg/kg. As to conditions: rat, in vivo. It is filed as ADME, organism-based. The arrangement: dose 1 mg/kg, route oral.
Data set [6] is described as follows: Volume of distribution at steady state after i.v. dosing at 1 mg/kg. The class given is ADME, organism-based. Also noted: dose 1 mg/kg, route intravenous. As to conditions: rat, in vivo, iv, read-out: Distribution.
Data set [7] can be described thus: oral bioavailability after p.o. dosing at 1 mg/kg. As to conditions: rat, in vivo, read-out: Bioavailabiility.
A short description of data set [8]: oral bioavailability after oral dosing at 1 mg/kg. As to conditions: rat, in vivo, read-out: Bioavailabiility. It is filed as ADME, organism-based.
Data set [9] is described as follows: Clearance after oral dosing at 1 mg/kg. The class given is ADME, organism-based. The arrangement: dose 1 mg/kg, route oral. As to conditions: rat, in vivo, read-out: Clearance.
Data set [10] can be described thus: Log D value at pH 7.4. It is filed as physicochemical. As to conditions: buffer.
A short description of data set [11]: Aqueous solubility.
Data set [12] is described as follows: Protein binding was determined in rat plasma. It is filed as ADME, cell-free.

Chain of Mitogen-activated protein kinase 14 (Q16539 whole entry): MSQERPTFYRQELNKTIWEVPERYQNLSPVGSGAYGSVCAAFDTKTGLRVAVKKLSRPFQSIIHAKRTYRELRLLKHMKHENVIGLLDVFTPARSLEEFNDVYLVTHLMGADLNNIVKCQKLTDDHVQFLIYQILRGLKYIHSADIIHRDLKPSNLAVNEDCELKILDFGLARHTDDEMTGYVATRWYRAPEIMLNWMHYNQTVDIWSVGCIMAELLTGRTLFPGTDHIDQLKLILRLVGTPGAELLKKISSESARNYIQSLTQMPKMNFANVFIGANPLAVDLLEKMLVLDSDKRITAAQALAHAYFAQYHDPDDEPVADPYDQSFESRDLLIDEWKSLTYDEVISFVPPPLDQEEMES
Chain of Epidermal growth factor receptor (P00533 whole entry): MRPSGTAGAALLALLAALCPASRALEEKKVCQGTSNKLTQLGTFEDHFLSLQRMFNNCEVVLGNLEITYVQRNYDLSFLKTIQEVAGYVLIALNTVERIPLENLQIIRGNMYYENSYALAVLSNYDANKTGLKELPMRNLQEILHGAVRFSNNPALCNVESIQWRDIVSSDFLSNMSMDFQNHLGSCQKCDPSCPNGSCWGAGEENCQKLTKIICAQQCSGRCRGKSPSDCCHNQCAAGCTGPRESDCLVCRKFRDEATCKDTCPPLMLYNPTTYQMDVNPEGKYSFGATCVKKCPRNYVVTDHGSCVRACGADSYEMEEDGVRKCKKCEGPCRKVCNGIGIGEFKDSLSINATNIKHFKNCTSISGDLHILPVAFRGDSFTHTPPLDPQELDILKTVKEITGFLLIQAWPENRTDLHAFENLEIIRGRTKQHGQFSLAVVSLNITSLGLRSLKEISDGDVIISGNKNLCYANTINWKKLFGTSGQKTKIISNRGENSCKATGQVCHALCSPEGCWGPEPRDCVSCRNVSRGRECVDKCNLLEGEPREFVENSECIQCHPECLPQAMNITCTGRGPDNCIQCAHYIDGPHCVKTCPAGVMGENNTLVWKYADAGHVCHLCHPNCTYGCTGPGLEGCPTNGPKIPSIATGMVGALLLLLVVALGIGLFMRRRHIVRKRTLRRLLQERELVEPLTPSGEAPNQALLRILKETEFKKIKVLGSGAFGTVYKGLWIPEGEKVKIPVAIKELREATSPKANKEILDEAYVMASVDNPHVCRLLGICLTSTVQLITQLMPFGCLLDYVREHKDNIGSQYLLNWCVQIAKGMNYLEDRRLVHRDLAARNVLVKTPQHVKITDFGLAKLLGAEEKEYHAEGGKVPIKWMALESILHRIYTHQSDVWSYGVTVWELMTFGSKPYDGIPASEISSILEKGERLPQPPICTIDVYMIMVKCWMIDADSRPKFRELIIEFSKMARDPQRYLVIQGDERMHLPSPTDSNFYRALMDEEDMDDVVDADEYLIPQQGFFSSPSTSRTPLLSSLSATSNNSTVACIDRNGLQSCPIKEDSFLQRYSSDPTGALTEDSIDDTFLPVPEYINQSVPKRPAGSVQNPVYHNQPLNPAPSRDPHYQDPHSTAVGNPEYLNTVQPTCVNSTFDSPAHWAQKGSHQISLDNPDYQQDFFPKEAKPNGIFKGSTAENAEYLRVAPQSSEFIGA

For the compound `COc1cc2ncnc(Nc3cccc(NC(=O)c4ccccc4)c3F)c2cc1OC`, the results for the IC50 in [1], in data set [2] and in data set [3] were 2800 nM, greater than 50000 nM and 690 nM, respectively.
For `C=CCN(C)c1nccc(Nc2cc(NC(=O)c3ccnc(N4CCOCC4)c3)ccc2C)n1`, the values for the IC50 in data set [2] and in data set [3] were greater than 50000 nM and 110 nM, respectively.
For `COc1cc2ncnc(Nc3cc(NC(=O)c4cccc(N5CCOCC5)c4)ccc3C)c2cc1OC`, the IC50 was greater than 33000 nM in data set [1], 16000 nM in data set [2] and 10 nM in data set [3].
For `Cc1ccc(NC(=O)c2ccnc(N3CCOCC3)c2)cc1Nc1cc(N2CCCN(C)CC2)ncn1`, the 50% inhibitory concentration (IC50) in data set [2] is greater than 50000 nM; in data set [3], 1220 nM.
In the case of `COc1cc2ncnc(Nc3cc(NC(=O)c4ccnc(N5CCOCC5)c4)ccc3C)c2cc1OCCN1CCOCC1`, the half-inhibitory concentration (IC50) turned out to be 7800 nM in data set [2] and 20 nM in [3].
With `COc1cc2ncnc(Nc3cc(NC(=O)c4ccccc4)ccc3C)c2cc1OC`, the 50% inhibitory concentration (IC50) in [1] is greater than 33000 nM; in data set [2] it was 21000 nM; in data set [3], 70 nM.
On to `COc1cc2ncnc(Nc3ccc(Cl)c(NC(=O)c4cccc(N(C)C)c4)c3)c2cc1OC`, for which the IC50 in data set [1] was 1000 nM; in data set [2], greater than 50000 nM; in data set [3] it was 1690 nM.
For `COc1cc2ncnc(Nc3cc(NC(=O)c4ccccc4)c(Cl)cc3F)c2cc1OC`, the figures for the IC50 in data set [2] and in data set [3] were greater than 50000 nM and 510 nM, respectively.
The matching figures for `CCCN1CCC(Oc2nccc(Nc3cc(NC(=O)c4ccnc(N5CCOCC5)c4)ccc3C)n2)CC1`: 410 nM and 50 nM.
For `Cc1ccc(NC(=O)c2ccnc(N3CCOCC3)c2)cc1Nc1ccncn1` the same measures were 27000 nM and 210 nM.
For `Cc1ccc(NC(=O)c2ccnc(N3CCOCC3)c2)cc1Nc1ccnc(OC2CCN(C)CC2)n1` the same measures were 500 nM and 40 nM.
Consider `COc1cc2ncnc(Nc3cc(NC(=O)c4ccccc4)ccc3Cl)c2cc1OC`, for which the results for the 50% inhibitory concentration (IC50) in data set [1], in data set [2] and in [3] were 11000 nM, greater than 50000 nM and 80 nM, respectively.
Regarding `Cc1ccc(NC(=O)c2ccnc(N3CCOCC3)c2)cc1Nc1ccnc(Cl)n1`, the concentration for half-maximal inhibition (IC50) in data set [2] was determined as 11000 nM; in data set [3], 10 nM.
As to `Cc1ccc(NC(=O)c2ccnc(N3CCOCC3)c2)cc1Nc1cc(Cl)ncn1`, the half-inhibitory concentration (IC50) in data set [2] was greater than 50000 nM; in data set [3] it was 240 nM.
Take `COc1cc2ncnc(Nc3cc(NC(=O)c4ccccc4)c(F)cc3F)c2cc1OC`: the IC50 in [1] is 490 nM; in [2], greater than 50000 nM; in data set [3] it was 50 nM.
For the compound `Cc1ccc(NC(=O)c2ccnc(N3CCOCC3)c2)cc1Nc1ccnc(OCCCN(C)C)n1`, the 50% inhibitory concentration (IC50) in data set [2] is 3200 nM; in data set [3], 30 nM.
`COc1cc2ncnc(Nc3ccc(C)c(NC(=O)c4ccccc4)c3)c2cc1OC`: the IC50 in data set [1] was 3200 nM; in data set [2], greater than 50000 nM; in data set [3], 2090 nM.
Regarding `COc1cc2ncnc(Nc3cccc(NC(=O)c4ccccc4)c3)c2cc1OC`, the IC50 in data set [1] is 5600 nM; in data set [2], greater than 50000 nM; in data set [3] it was 140 nM.
Turning to `Cc1ccc(NC(=O)c2ccnc(N3CCOCC3)c2)cc1Nc1cc(NCCCN2CCCC2)ncn1`, the IC50 in data set [2] was greater than 50000 nM; in data set [3], 450 nM.
With `COc1cc2ncnc(Nc3cc(NC(=O)c4cccc(N(C)C)c4)ccc3Cl)c2cc1OC`, the figures for the half-maximal inhibitory concentration (IC50) in data set [1], in [2] and in data set [3] were 29000 nM, greater than 50000 nM and 40 nM, respectively.
As to `CSc1nccc(Nc2cc(NC(=O)c3cc(F)cc(N4CCOCC4)c3)ccc2C)n1`, the clearance in [4] is 25 mL/min/kg. Also, in data set [5], the Distribution is 0.8 L/kg. For the same compound, the Vd in data set [6] stood at 0.8 L/kg. Further, the IC50 in data set [2] turned out to be 3400 nM; in data set [3], 10 nM. Besides, the bioavailability in [7] and in [8] was 26% each time. In addition, in [9], the CL/F is 25 mL/min/kg.
Regarding `COc1cc2ncnc(Nc3cc(NC(=O)c4ccnc(N5CCOCC5)c4)ccc3C)c2cc1OCCN(C)C`, the results for the IC50 in data set [2] and in [3] were 6900 nM and 30 nM, respectively.
For `CCN(CC)CCCNc1cc(Nc2cc(NC(=O)c3ccnc(N4CCOCC4)c3)ccc2C)ncn1` the same measures were 23000 nM and 280 nM.
For `COc1cc2ncnc(Nc3cc(NC(=O)c4ccnc(N5CCOCC5)c4)ccc3C)c2cc1OCCN1CCCCC1` the same measures were 4600 nM and 50 nM.
`Cc1ccc(NC(=O)c2ccnc(N3CCOCC3)c2)cc1Nc1ccnc(NCCCN2CCOCC2)n1`: the 50% inhibitory concentration (IC50) was greater than 50000 nM in [2] and 90 nM in data set [3].
`COc1cc2ncnc(Nc3ccc(Cl)c(NC(=O)c4ccccc4)c3)c2cc1OC`: the IC50 in [1] is 2200 nM; in [2], greater than 50000 nM; in [3] it was 610 nM.
For `CCCN1CCC(Oc2nccc(Nc3cc(NC(=O)c4cccc(N5CCOCC5)c4)ccc3C)n2)CC1`, the half-inhibitory concentration (IC50) came to 300 nM in data set [2] and 40 nM in data set [3].
The matching figures for `Cc1ccc(NC(=O)c2ccnc(N3CCOCC3)c2)cc1Nc1ccnc(OCC(C)(C)CN(C)C)n1`: 3700 nM and 70 nM.
With `COc1cc2ncnc(Nc3cc(NC(=O)c4ccnc(N5CCOCC5)c4)ccc3C)c2cc1OCCN(C(C)C)C(C)C`, in data set [10], the logD worked out at 3.5. For the same compound, the concentration in solution in data set [11] (solubility) was 240 µM (≈ 147 µg/mL). Further, the values for the IC50 in [2] and in [3] were 3500 nM and 50 nM, respectively. This compound also came in with a Binding in data set [12] of 83%.
In the case of `COc1cc2ncnc(Nc3cc(NC(=O)c4cccc(N(C)C)c4)ccc3C)c2cc1OC`, the values for the IC50 in data set [1], in [2] and in [3] were greater than 33000 nM, 35000 nM and 30 nM, respectively.
`Cc1ccc(NC(=O)c2ccnc(N3CCOCC3)c2)cc1Nc1ccnc(OCC2CCCN(C)C2)n1` (configuration not stated): the half-maximal inhibitory concentration (IC50) in data set [2] worked out at 1100 nM; in data set [3] it was 30 nM.
In the case of `COc1cc2ncnc(Nc3cccc(NC(=O)c4cccc(N(C)C)c4)c3)c2cc1OC`, the concentration for half-maximal inhibition (IC50) in [1] was greater than 33000 nM; in data set [2], greater than 50000 nM; in [3] it was 210 nM.
Take `Cc1ccc(NC(=O)c2ccnc(N3CCOCC3)c2)cc1Nc1ccnc(N(C)C2CCN(C)CC2)n1`: the figures for the concentration for half-maximal inhibition (IC50) in [2] and in data set [3] were 5300 nM and 80 nM, respectively.
The matching figures for `Cc1ccc(NC(=O)c2ccnc(N3CCOCC3)c2)cc1Nc1ccnc(NCCCN2CCCC2)n1`: 16000 nM and 50 nM.
For `C[S+]([O-])c1ccc(-c2nc(-c3ccc(F)cc3)c(-c3ccncc3)[nH]2)cc1` (configuration not stated) [SB-203580], inhibition in data set [2] was half-maximal at 2000 nM (IC50). This counts as single-digit micromolar.
For the compound `COc1cc2ncnc(Nc3cccc(Cl)c3)c2cc1OC` [TYRPHOSTIN AG-1478], the IC50 in data set [2] was greater than 50000 nM; in [3] it was 560 nM.

(Values after ChEMBL document CHEMBL1138000, “Novel, potent and selective anilinoquinazoline and anilinopyrimidine inhibitors of p38 MAP kinase” (Bioorg Med Chem Lett, 2004).)
